Experimental data reported in the supplement of paper PMC10307832.

How the values were obtained:
Assay in all cases: relative viability (nuclei count vs DMSO), 5 days (fraction); higher = more cells survive
[1] = compound: CN1CCC(CC1)OC2=CC(=C(C=C2)NC3=NC=C4C(=N3)N(C(=O)N4C)C5CCCC5)OC [AZ3146] + Cc1nc(NC(=O)N2CCC[C@H]2C(N)=O)sc1-c1ccnc(C(C)(C)C(F)(F)F)c1 [Alpelisib] (partner 2 µM)
Procedure, shortened: (§1)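 Relative viability is defined as nuclei in treated wells over nuclei in vehicle wells. Duplicate plates were run and medians reported. Lung cancer cell lines in 1536-well plates were dosed by pin tool one day after seeding, with one drug or with a fixed anchor-drug dose plus five library-drug doses (not always all listed) in √10 steps, and nuclei were counted after 5 days.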

[2] = compound: CN1CCC(CC1)OC2=CC(=C(C=C2)NC3=NC=C4C(=N3)N(C(=O)N4C)C5CCCC5)OC [AZ3146] + N=C(N)NC(=N)NCCc1ccccc1 [Phenformin] (partner 250 µM)
Procedure, shortened: as §1

[3] = compound: CN1CCC(CC1)OC2=CC(=C(C=C2)NC3=NC=C4C(=N3)N(C(=O)N4C)C5CCCC5)OC [AZ3146] + Cc1cc(Nc2cc(N3CCN(C)CC3)nc(Sc3ccc(NC(=O)C4CC4)cc3)n2)n[nH]1 [Tozasertib] (partner 0.1 µM)
Procedure, shortened: as §1

[4] = compound: CN1CCC(CC1)OC2=CC(=C(C=C2)NC3=NC=C4C(=N3)N(C(=O)N4C)C5CCCC5)OC [AZ3146] + CC(=O)c1c(C)c2cnc(Nc3ccc(N4CCNCC4)cn3)nc2n(C2CCCC2)c1=O [Palbociclib] (partner 0.5 µM)
Procedure, shortened: as §1

| Cell Line | relative viability ([1]; first compound 0.08 µM) | relative viability ([1]; first compound 0.253 µM) | relative viability ([1]; first compound 0.8 µM) | relative viability ([1]; first compound 2.53 µM) | relative viability ([1]; first compound 8 µM) | relative viability ([2]; first compound 0.08 µM) | relative viability ([2]; first compound 0.253 µM) | relative viability ([2]; first compound 0.8 µM) | relative viability ([2]; first compound 2.53 µM) | relative viability ([2]; first compound 8 µM) | relative viability ([3]; first compound 0.08 µM) | relative viability ([3]; first compound 0.253 µM) | relative viability ([3]; first compound 0.8 µM) | relative viability ([3]; first compound 2.53 µM) | relative viability ([3]; first compound 8 µM) | relative viability ([4]; first compound 0.08 µM) | relative viability ([4]; first compound 0.253 µM) | relative viability ([4]; first compound 0.8 µM) | relative viability ([4]; first compound 2.53 µM) | relative viability ([4]; first compound 8 µM) |
| --- | --- | --- | --- | --- | --- | --- | --- | --- | --- | --- | --- | --- | --- | --- | --- | --- | --- | --- | --- | --- |
| 201T | 0.943 | 0.918 | 0.954 | 0.993 | 1 | 0.448 | 0.446 | 0.438 | 0.424 | 0.455 | 0.612 | 0.858 | 0.837 | 0.651 | 0.473 | 0.327 | 0.359 | 0.382 | 0.348 | 0.347 |
| A549 | 0.716 | 0.794 | 0.718 | 0.732 | 0.308 |  | 0.153 | 0.168 | 0.131 | 0.0734 |  |  |  |  |  |  |  |  |  |  |
| A-427 | 1.04 | 1.06 | 1.01 | 0.93 | 1.02 | 0.375 | 0.332 | 0.243 | 0.282 | 0.227 | 0.2 | 0.191 | 0.157 | 0.19 | 0.205 | 0.482 | 0.521 | 0.497 | 0.493 | 0.463 |
| ABC-1 | 0.968 | 0.981 | 1.23 | 1 | 1.09 | 0.266 | 0.19 | 0.212 | 0.226 | 0.26 | 0.173 | 0.178 | 0.181 | 0.135 | 0.2 | 0.432 | 0.736 | 0.751 | 0.851 | 0.573 |
| BEN |  | 0.967 | 1.06 | 1.07 | 0.895 |  | 0.291 | 0.248 | 0.268 | 0.242 | 0.402 | 0.509 | 0.493 | 0.512 | 0.406 |  | 0.47 | 0.511 | 0.479 | 0.471 |
| CAL-12T | 1.21 | 1.31 | 1.36 | 1.31 | 0.765 | 0.674 | 0.575 | 0.568 | 0.6 | 0.405 | 0.263 | 0.3 | 0.209 | 0.247 | 0.235 | 0.391 | 0.502 | 0.45 | 0.523 | 0.229 |
| COR-L23 | 0.705 | 0.74 | 0.766 | 0.824 | 0.639 | 0.401 | 0.44 | 0.416 | 0.526 | 0.336 | 0.193 | 0.222 | 0.161 | 0.144 | 0.173 | 0.244 | 0.351 | 0.328 | 0.321 | 0.278 |
| COR-L 105 | 1.01 | 1.15 | 0.86 | 1.1 | 0.665 | 0.548 | 0.451 | 0.505 | 0.388 | 0.294 | 0.409 | 0.335 | 0.304 | 0.293 | 0.309 | 0.408 | 0.365 | 0.377 | 0.346 | 0.372 |
| Calu-6 | 1.01 | 1.01 | 1.04 | 1.03 | 0.787 |  |  |  |  |  |  |  |  |  |  |  |  |  |  |  |
| ChaGo-K-1 |  |  |  |  |  | 0.581 | 0.452 | 0.474 | 0.426 | 0.333 | 0.192 | 0.229 | 0.22 | 0.235 | 0.206 | 0.935 | 0.927 | 0.894 | 0.896 | 0.862 |
| EBC-1 | 0.927 | 0.828 | 0.731 | 0.882 | 0.711 |  |  |  |  |  |  |  |  |  |  |  |  |  |  |  |
| IA-LM | 0.638 | 0.627 | 0.864 | 0.714 | 0.763 |  |  |  |  |  |  |  |  |  |  |  |  |  |  |  |
| NCI-H522 |  |  |  |  |  | 0.818 | 0.698 | 0.757 | 0.631 | 0.62 | 0.533 | 0.512 | 0.582 | 0.455 | 0.587 | 1.15 | 0.902 | 1.14 | 0.894 | 1.1 |
| NCI-H596 | 0.482 | 0.484 | 0.489 | 0.487 | 0.428 | 0.672 | 0.738 | 0.722 | 0.735 | 0.797 | 0.949 | 0.972 | 0.979 | 0.728 | 0.524 |  |  |  |  |  |
| NCI-H1299 | 1 | 1.01 | 1.02 | 1.07 | 1.08 |  |  |  |  |  |  |  |  |  |  |  |  |  |  |  |
| NCI-H1563 | 0.924 | 0.87 | 1 | 0.927 | 0.882 | 0.619 | 0.645 | 0.596 | 0.639 | 0.644 |  |  |  |  |  |  |  |  |  |  |
| NCI-H1648 |  |  |  |  |  |  |  |  |  |  |  | 0.303 | 0.54 | 0.58 | 0.406 |  |  | 0.27 | 0.298 | 0.232 |
| NCI-H1650 |  |  |  |  |  | 0.415 | 0.355 | 0.449 | 0.386 | 0.26 | 0.345 | 0.349 | 0.242 | 0.314 | 0.255 | 0.301 | 0.343 | 0.366 | 0.352 | 0.283 |
| NCI-H1703 | 0.374 | 0.34 | 0.326 | 0.437 | 0.29 |  |  |  |  |  |  |  |  |  |  |  |  |  |  |  |
| NCI-H1792 | 0.577 | 0.75 | 0.762 | 0.667 | 0.718 | 0.191 |  | 0.318 | 0.267 | 0.121 |  |  |  |  |  | 0.507 | 0.664 |  | 0.679 | 0.669 |
| NCI-H2342 |  |  |  |  |  | 0.568 | 0.565 | 0.615 | 0.512 | 0.51 | 0.329 | 0.654 | 0.518 | 0.505 | 0.353 | 0.527 | 0.502 | 0.582 | 0.565 | 0.501 |
| SW 900 |  |  |  |  |  | 0.625 | 0.576 | 0.439 | 0.502 | 0.383 | 0.466 | 0.625 | 0.399 | 0.326 | 0.333 | 0.447 |  | 0.502 | 0.489 | 0.589 |
